Assay type in all cases: cell-based
The target of test [1] is T1, PfCRT^Dd2 (Plasmodium falciparum, UniProt Q9N623, A220S/I356T/K76T/M74I/N326S/N75E/Q271E/R371I). The test can be described thus: [3H]CQ uptake into Xenopus oocytes, cis-inhibition by unlabelled solute. The following applies: PfCRTDd2 oocytes, background [3H]CQ accumulation subtracted, normalised to oocyte type control. A digest of the protocol: (§1)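 Transport runs from the acidic bath into the cytosol, analogous to PfCRT-mediated efflux out of the vacuole. Non-expressing oocytes act as background.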

Test [2] concerns the target T2, PfCRT^Ecu1110 (Plasmodium falciparum, UniProt Q9N623, A220S/I356L/K76T/N326D). The test is described as above. The following applies: for PfCRT-mediated [3H]CQ transport, cis-inhibition (% PfCRTEcu1110 control): PfCRTEcu1110 oocytes, background [3H]CQ accumulation subtracted, normalised to oocyte type control; for [3H]CQ transport (% PfCRTEcu1110 control), cis-inhibition, PfCRTEcu1110: PfCRT-mediated component (background subtracted), sheet title says normalised to PfCRTDd2 control, mean ± SEM, SEM. The gist of the method: as §1

The target of test [3] is PfCRT^3D7 (Plasmodium falciparum, UniProt Q8IBZ9). The test can be described thus: cell-based. The settings on record: PfCRT3D7 oocytes, normalised to oocyte type control. The gist of the method:
(§2)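 Oocytes (ten per treatment, ≥4 independent frogs/days) were preloaded by injecting VF-6 in 25 nL ND96 at pH 5.0, 5.5, 6.0 or 7.0, or Na^+-free choline buffer, then uptake run 1.5 h, 27.5 °C, ND96 pH 5.5 by default. Internal concentrations assumed ~400 nL oocyte volume.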

For test [4], the target named is T1, PfCRT^Dd2. The test can be described thus: cell-based. The settings on record: for PfCRT-mediated [3H]CQ transport, trans-stimulation (% PfCRTDd2 control): PfCRTDd2 oocytes, normalised to oocyte type control; for [3H]CQ transport (% PfCRTDd2 control), trans-stimulation, PfCRTDd2: PfCRT-mediated component (background subtracted), mean ± SEM, SEM. A digest of the protocol:
as §2

The target of test [5] is T2, PfCRT^Ecu1110. Briefly: cell-based. The settings on record: for PfCRT-mediated [3H]CQ transport, trans-stimulation (% PfCRTEcu1110 control): PfCRTEcu1110 oocytes, normalised to oocyte type control; for [3H]CQ transport (% PfCRTDd2 control), trans-stimulation, PfCRTEcu1110: PfCRT-mediated component (background subtracted), sheet title says normalised to PfCRTDd2 control, mean ± SEM, SEM. A digest of the protocol:
as §2

Where [6] appears, read: [test solute]i = 5 mM (intracellular).
The mark [7] stands for this setting: [test solute]i = 45 mM (intracellular; 30 mM for some solutes due to solubility).
Setting [8] is: [test solute]i = 5 mM (injected).
The mark [9] stands for this setting: [test solute]i = 45 mM (30 mM for some solutes due to solubility).

Chain of PfCRT^3D7 (Q8IBZ9 59-398): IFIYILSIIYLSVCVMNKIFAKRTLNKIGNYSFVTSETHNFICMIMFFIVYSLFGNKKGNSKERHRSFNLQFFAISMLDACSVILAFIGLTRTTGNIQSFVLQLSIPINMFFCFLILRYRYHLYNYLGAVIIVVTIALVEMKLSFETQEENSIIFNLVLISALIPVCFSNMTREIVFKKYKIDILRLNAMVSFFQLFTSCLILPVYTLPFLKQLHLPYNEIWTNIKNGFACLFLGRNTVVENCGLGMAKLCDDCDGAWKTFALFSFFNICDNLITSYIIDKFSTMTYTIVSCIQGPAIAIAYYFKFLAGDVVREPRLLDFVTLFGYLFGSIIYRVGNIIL
T2 sequence (Q9N623 whole entry A220S/I356L/K76T/N326D): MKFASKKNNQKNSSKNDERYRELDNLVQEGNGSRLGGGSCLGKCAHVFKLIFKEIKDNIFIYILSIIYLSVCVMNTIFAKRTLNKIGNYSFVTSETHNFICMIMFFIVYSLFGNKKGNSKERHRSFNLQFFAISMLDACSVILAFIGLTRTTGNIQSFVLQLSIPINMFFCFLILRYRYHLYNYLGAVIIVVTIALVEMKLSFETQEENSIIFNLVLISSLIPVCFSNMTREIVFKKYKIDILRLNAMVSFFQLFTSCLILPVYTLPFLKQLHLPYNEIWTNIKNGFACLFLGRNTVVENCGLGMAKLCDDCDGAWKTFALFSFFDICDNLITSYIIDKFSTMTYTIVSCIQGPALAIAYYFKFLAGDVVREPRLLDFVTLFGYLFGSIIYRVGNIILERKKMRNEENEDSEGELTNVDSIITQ
T1 sequence (Q9N623 whole entry A220S/I356T/K76T/M74I/N326S/N75E/Q271E/R371I): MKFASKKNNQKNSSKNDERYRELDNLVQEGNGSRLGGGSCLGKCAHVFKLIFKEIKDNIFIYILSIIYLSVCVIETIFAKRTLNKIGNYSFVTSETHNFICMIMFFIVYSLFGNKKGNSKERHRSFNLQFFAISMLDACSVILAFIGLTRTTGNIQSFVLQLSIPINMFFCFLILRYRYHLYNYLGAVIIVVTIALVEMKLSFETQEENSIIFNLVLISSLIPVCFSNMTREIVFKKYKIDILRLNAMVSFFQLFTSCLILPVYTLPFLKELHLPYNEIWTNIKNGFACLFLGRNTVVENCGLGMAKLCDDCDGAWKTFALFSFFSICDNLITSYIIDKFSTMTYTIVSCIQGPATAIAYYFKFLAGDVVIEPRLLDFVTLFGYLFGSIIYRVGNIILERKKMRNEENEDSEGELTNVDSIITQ

In the case of YIGSR [YR-5], the “PfCRT-mediated [3H]CQ transport, cis-inhibition (% PfCRTDd2 control)” value in test [1] ([test solute] = 0.5 mM) came to 73 ± 3.9 % PfCRTDd2 control; in test [1] ([test solute] = 1 mM) it was 58 ± 3.1 % PfCRTDd2 control; in test [1] ([test solute] = 2 mM), 61 ± 2.9 % PfCRTDd2 control. In addition, the “PfCRT-mediated [3H]CQ transport, cis-inhibition (% PfCRTEcu1110 control)” value is 71 ± 1.6 % PfCRTEcu1110 control in test [2] ([test solute] = 0.5 mM), 55 ± 1.4 % PfCRTEcu1110 control in test [2] ([test solute] = 1 mM) and 49 ± 2.4 % PfCRTEcu1110 control in test [2] ([test solute] = 2 mM). The “[3H]CQ transport (% PfCRTEcu1110 control), cis-inhibition, PfCRTEcu1110” value in test [2] ([test solute] = 0.5 mM) amounted to 22 ± 0.1 % PfCRTEcu1110 control; in test [2] ([test solute] = 1 mM), 17 ± 0.4 % PfCRTEcu1110 control; in test [2] ([test solute] = 2 mM), 15 ± 0.1 % PfCRTEcu1110 control. For the same substance, the “PfCRT-mediated [3H]CQ transport, trans-stimulation (% PfCRT3D7 control)” value in test [3] (setting [6]) came out at 98 ± 2.6 % PfCRT3D7 control; in test [3] (setting [7]), 94 ± 2.1 % PfCRT3D7 control. Also, the figures for the “PfCRT-mediated [3H]CQ transport, trans-stimulation (% PfCRTDd2 control)” value in test [4] (setting [6]) and in test [4] (setting [7]) were 94 ± 4.6 % PfCRTDd2 control and 96 ± 4.1 % PfCRTDd2 control, respectively. The “[3H]CQ transport (% PfCRTDd2 control), trans-stimulation, PfCRTDd2” value in test [4] (setting [8]) stood at 94 ± 4.6 % PfCRTDd2 control; in test [4] (setting [9]) it was 96 ± 4.1 % PfCRTDd2 control. Moreover, the “PfCRT-mediated [3H]CQ transport, trans-stimulation (% PfCRTEcu1110 control)” value is listed as 98 ± 4.2 % PfCRTEcu1110 control in test [5] (setting [6]) and 96 ± 3.5 % PfCRTEcu1110 control in test [5] (setting [7]). Moreover, the “[3H]CQ transport (% PfCRTDd2 control), trans-stimulation, PfCRTEcu1110” value was found to be 30 ± 1.7 % PfCRTEcu1110 control in test [5] (setting [8]) and 29 ± 1.3 % PfCRTEcu1110 control in test [5] (setting [9]).

Take YPWTQ [YQ-5]: the “PfCRT-mediated [3H]CQ transport, cis-inhibition (% PfCRTDd2 control)” value was 67 ± 2.2 % PfCRTDd2 control in test [1] ([test solute] = 0.5 mM), 51 ± 3.2 % PfCRTDd2 control in test [1] ([test solute] = 1 mM) and 27 ± 1.1 % PfCRTDd2 control in test [1] ([test solute] = 2 mM). Besides, the entries for the “PfCRT-mediated [3H]CQ transport, cis-inhibition (% PfCRTEcu1110 control)” value in test [2] ([test solute] = 0.5 mM), in test [2] ([test solute] = 1 mM) and in test [2] ([test solute] = 2 mM) were 72 ± 6.9 % PfCRTEcu1110 control, 61 ± 1.4 % PfCRTEcu1110 control and 49 ± 2.5 % PfCRTEcu1110 control, respectively. Also, the “[3H]CQ transport (% PfCRTEcu1110 control), cis-inhibition, PfCRTEcu1110” value was 23 ± 0.4 % PfCRTEcu1110 control in test [2] ([test solute] = 0.5 mM), 19 ± 0.3 % PfCRTEcu1110 control in test [2] ([test solute] = 1 mM) and 15 ± 0.5 % PfCRTEcu1110 control in test [2] ([test solute] = 2 mM). Further, the “PfCRT-mediated [3H]CQ transport, trans-stimulation (% PfCRT3D7 control)” value amounted to 96 ± 3.5 % PfCRT3D7 control in test [3] (setting [6]) and 97 ± 3.7 % PfCRT3D7 control in test [3] (setting [7]). Moreover, the “PfCRT-mediated [3H]CQ transport, trans-stimulation (% PfCRTDd2 control)” value was 97 ± 4.6 % PfCRTDd2 control in test [4] (setting [6]) and 96 ± 2.7 % PfCRTDd2 control in test [4] (setting [7]). Besides, the “[3H]CQ transport (% PfCRTDd2 control), trans-stimulation, PfCRTDd2” value in test [4] (setting [8]) was found to be 97 ± 4.6 % PfCRTDd2 control; in test [4] (setting [9]) it was 96 ± 2.7 % PfCRTDd2 control. The entries for the “PfCRT-mediated [3H]CQ transport, trans-stimulation (% PfCRTEcu1110 control)” value in test [5] (setting [6]) and in test [5] (setting [7]) were 99 ± 3.5 % PfCRTEcu1110 control and 98 ± 2.2 % PfCRTEcu1110 control, respectively. For the same substance, the “[3H]CQ transport (% PfCRTDd2 control), trans-stimulation, PfCRTEcu1110” value is listed as 30 ± 1.0 % PfCRTEcu1110 control in test [5] (setting [8]) and 30 ± 1.3 % PfCRTEcu1110 control in test [5] (setting [9]).
